Experimental data as given in paper PMC11785791, “Cryo-EM structure of the calcium-sensing receptor complexed with the kokumi substance γ-glutamyl-valyl-glycine” (Scientific Reports, 2025).

Type: physicochemical
Details: pH 7.4

N[C@@H](Cc1c[nH]c2ccccc12)C(=O)O [L-Trp, L-tryptophan]
Solubility in the assay buffer: low solubility
